The record followed here is ChEMBL document CHEMBL1140957, “GRIND-based 3D-QSAR to predict inhibitory activity for similar enzymes, OSC and SHC” (Eur J Med Chem, 2008).

Several values for one entry are separate records, joined by “and”; a condition that tells them apart may be missing. Equal values may be shown once.

Molecular target in the first test: not listed separately
Put plainly: Inhibition of squalene-hopene cyclase.
On to `CN(CCCCCCOC1CCN(C(=O)c2ccc(F)cc2)CC1)C1CC1`, for which the pIC50 was 6.12.

`CN(C[C@H]1C[C@@H]1COc1ccc(C(=O)c2ccc(Br)cc2)c(F)c1)C1CC1` returned a pIC50 of 7.3. On the same count and under the same terms, the figure for `CN(CCCCCCOc1ccc(C(=O)c2ccc(Br)cc2)c(F)c1)C1CC1` is 7.42. On the same count and under the same terms, the figure for `C=CCN(C)CCCCCCOc1ccc2c(-c3ccc(Br)cc3)noc2c1` is 7.12; for `C=CCN(C)CCCCCCOc1ccc(C(=O)c2ccc(Br)cc2)cc1` it is 7.02. As to `CN(CCCO)CCCCCCOc1ccc(C(=O)c2ccc(Br)cc2)cc1`, the pIC50 is reported as 6.55. Regarding `C=CCN(C)CCCCCCOc1ccc2c(c1)c(C)nn2C`, the pIC50 is 6.54 and 6.48. Molecule `CN(C[C@H]1C[C@@H]1COc1ccc(C(=O)c2ccc(Br)cc2)cc1)C1CC1` came in with a pIC50 of 7.21. On the same count and under the same terms, as for `C=CCN(C)C/C=C/COc1ccc(C(=O)c2ccc(Br)cc2)cc1`, the figure is 7.4.

Turning to `C=CCN(C)C/C=C/COc1ccc(-c2nsc3cc(Br)ccc23)cc1`, the pIC50 turned out to be 6.89. On the same count and under the same terms, the figure for `C=CCN(C)C/C=C/COc1ccc2c(-c3ccc(Br)cc3)csc2c1` is 7.12; for `C=CCN(C)C/C=C/COc1ccc2c(-c3ccc(Br)cc3)noc2c1` it is 7.31; for `C=CCN(C)CCCCCCOC1CCN(C(=O)c2ccc(F)cc2)CC1` it is 5.92.

`C=CCN(C)CCCCCCOc1ccc2c(c1)CON=C2c1ccc(Br)cc1` came in with a pIC50 of 6.76.

For another test, the target named is T1, Lanosterol synthase (Homo sapiens, UniProt P48449).
T1 sequence (P48449 whole entry): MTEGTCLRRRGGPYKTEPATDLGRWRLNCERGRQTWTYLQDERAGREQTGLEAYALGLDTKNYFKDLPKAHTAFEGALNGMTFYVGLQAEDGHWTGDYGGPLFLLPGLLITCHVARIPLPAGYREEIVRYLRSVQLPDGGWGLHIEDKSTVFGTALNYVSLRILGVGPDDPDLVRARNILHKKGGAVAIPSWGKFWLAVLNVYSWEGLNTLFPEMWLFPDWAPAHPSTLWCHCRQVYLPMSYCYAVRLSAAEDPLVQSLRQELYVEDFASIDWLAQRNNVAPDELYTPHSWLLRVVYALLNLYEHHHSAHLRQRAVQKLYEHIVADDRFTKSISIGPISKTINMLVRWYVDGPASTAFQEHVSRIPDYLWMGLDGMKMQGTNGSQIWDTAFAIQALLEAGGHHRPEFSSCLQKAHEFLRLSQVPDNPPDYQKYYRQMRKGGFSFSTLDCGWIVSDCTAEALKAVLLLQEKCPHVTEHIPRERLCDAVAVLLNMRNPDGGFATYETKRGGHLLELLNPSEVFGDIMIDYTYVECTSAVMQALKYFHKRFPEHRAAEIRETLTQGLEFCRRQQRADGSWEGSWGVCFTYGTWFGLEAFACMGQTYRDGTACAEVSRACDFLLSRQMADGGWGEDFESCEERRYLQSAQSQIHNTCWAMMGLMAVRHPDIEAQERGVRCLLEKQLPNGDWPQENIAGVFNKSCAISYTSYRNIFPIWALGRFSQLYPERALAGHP
Put plainly: Inhibition of oxidosqualene cyclase.
`C=CCN(C[C@H]1C[C@@H]1COc1ccc(C(=O)c2ccc(Br)cc2)cc1)C1CC1` had a half-inhibitory concentration (IC50) of 6.46 nM. Molecule `CN(CCCO)CCCCCCOc1ccc(C(=O)c2ccc(Br)cc2)cc1` gave an IC50 of 28.8 nM. For the molecule `C=CCN(C)CCCCCCOc1ccc2c(c1)c(C)nn2C`, the IC50 was 19.5 nM.

One may read the pIC50 as −log10 of the IC50, conventionally taken in molar units. A low value points to a high IC50. For orientation: IC50 means the point on the concentration scale where inhibition reaches its midpoint. Higher therefore signals weaker potency in that assay.
